## CC(=O)OC[C@H]1O[C@@H](OC(C)=O)[C@H](OC(C)=O)[C@@H]1OC(C)=O
  melting point: 79 to 81 °C

## CCCCCCCCCOC(=O)c1ccc(N)cc1
  melting point: 69 °C

## N#CN=CNc1ccccc1
  melting point: 138 to 141 °C

## CC(=Nc1cccc(N)c1)c1c(O)c2ccccc2n(-c2ccccc2)c1=O
  melting point: 200 °C

## CCOC(=O)c1c[nH]nc1C
  melting point: 136 to 138 °C

## C=C(CCl)CCl
  melting point: 14 °C

## O=Cc1ccc(N2CCCCC2)cc1
  melting point: 62 to 63 °C

## CC(C)(C)OC(=O)N[C@@H](CCC(=O)O)C(=O)O
  melting point: 110 to 113 °C

## BrCCCOc1ccc2cc3ccc(OCCCBr)cc3nc2c1
  melting point: 142 °C

## Nc1ccccc1SCCS(=O)(=O)c1ccc(Cl)cc1
  melting point: 135 to 137 °C

## CCOC(C/N=C/c1ccc(/C=N/CC(OCC)OCC)c([N+](=O)[O-])c1)OCC
  melting point: 38 °C

## COC(=O)c1cc(C(=O)O)cc([N+](=O)[O-])c1
  melting point: 183 °C

## CC(C)(C)C(CO)CO
  melting point: 55 °C

## [O-][N+](=Nc1ccccc1)c1ccc(N=Nc2ccccc2)cc1
  melting point: 130 to 131 °C

## C#CC(C)O (centres undefined)
  melting point: -3 °C

## Nc1cccc2c1C(=O)c1cccc(N)c1C2=O
  melting point: 319 °C

## COc1ccc(C2CC(c3ccc4ccccc4c3)=NN2C(N)=O)cc1 (centres undefined)
  melting point: 173 to 175 °C

## O=C(c1ccccc1)c1ccc2n1CCC2C(=O)O (centres undefined)
  melting point: 160 °C

## Fc1ccc(Cc2ccc(F)cc2)cc1
  melting point: 29 to 30 °C

## CCOC(=O)C(SP(=S)(OC)OC)c1ccccc1 (centres undefined)
  melting point: 17.5 °C

## C=CCCCCCCCCC
  melting point: -49.2 °C

## O=C(Nc1ccccc1)OCCc1ccc(CCOC(=O)Nc2ccccc2)cc1
  melting point: 213 °C

## Cc1c(C(=O)O)sc2sc(C(=O)O)c(C)c12
  melting point: 360 °C

## O=C(O)C(Br)c1ccccc1Cl (centres undefined)
  melting point: 107 °C

## O=C(O)c1cnn2ccccc12
  melting point: 199 to 201 °C

## CCCCCCCCCCCCCCCCCCCl
  melting point: 28.6 °C

## Oc1ccc(Br)cc1C=NCCN=Cc1cc(Br)ccc1O
  melting point: 191 to 196 °C

## Clc1cc2c(c(Cl)c1Cl)Oc1c(cc(Cl)c(Cl)c1Cl)O2
  melting point: 243 °C

## c1ccc(P(C2CCCCC2)C2CCCCC2)cc1
  melting point: 59.5 °C

## NC(=S)C(N)=S
  melting point: 170 °C

## Nc1ccc2cc(C(=O)O)ccc2c1
  melting point: 222 to 227 °C

## CC12CCC3C(CC=C4CC(O)CCC43C)C1CCC2=O (single isomer, unassigned; (+))
  melting point: 146 to 151 °C

## O=C(NC(CC=Cc1ccccc1)C(=O)O)OCC1c2ccccc2-c2ccccc21 (centres undefined)
  melting point: 142 °C

## CC1=C(C(=O)OCC(C)C)C(c2ccccc2)NC(=S)N1 (centres undefined)
  melting point: 153 °C

## COc1ccc(NC(=S)c2ccccc2)cc1
  melting point: 133 °C

## O=C1CN(N=Cc2ccc(-c3ccc([N+](=O)[O-])cc3)o2)C(=O)N1
  melting point: 280 °C

## CC(=O)OCCOC(C)=O
  melting point: -31 °C

## CCOC(=O)CC(CC(=O)OCC)(c1cc(C)c(O)c(C)c1)c1cc(C)c(O)c(C)c1
  melting point: 178 °C

## CC(C)(C)c1nnc(NS(=O)(=O)c2ccccc2)s1
  melting point: 163 °C

## CNc1cc(=O)oc2ccccc12
  melting point: 198 °C

## Cc1noc(-c2ccccc2)c1I
  melting point: 66 to 68 °C

## CC(=O)Oc1ccc(OC(C)=O)c(C)c1
  melting point: 41 °C

## O=c1ccn(C2CC(F)C(CO)O2)c(=O)[nH]1 (centres undefined)
  melting point: 186 °C

## CCOC(=O)Cc1csc(=S)[nH]1
  melting point: 136 to 144 °C

## Nc1c([N+](=O)[O-])ccc(Oc2ccccc2)c1Cl
  melting point: 81.5 °C

## COC(=O)c1cc([N+](=O)[O-])cc([N+](=O)[O-])c1
  melting point: 110 °C

## N#Cc1cc(F)c(Cl)nc1Cl
  melting point: 91 °C

## Cn1nc(CO)cc1-c1ccco1
  melting point: 43 to 48 °C

## CCOC(=O)C1=NN(c2ccccc2)C(=O)C1C(Cl)C1C(=O)N(c2ccccc2)N=C1C(=O)OCC (centres undefined)
  melting point: 221 °C

— a melting point compilation (Tetko et al.)
